Data from US5698546A, “Cyclic polyamines” (Johnson Matthey Public Limted Company, priority 1994, dated 1997).
Where a name gives a salt, the structure may show the parent alone. Read-outs that look alike come from different tables or passages of the source.

Experiments:
HIV-2 (LAV-2 ROD) = assay: MT-4 cells challenged with HIV-2, viability by MTT method (antiviral activity); type: cell-based, Human Immunodeficiency Virus; conditions: for IC50: Human immunodeficiency virus 2, MT4, 120 h
[1] = cytotoxicity in MT-4 cells, MTT method; conditions: human
HIV-1 (HTLV-IIIB) = assay: microbe, parasite or virus in culture; type: cell-based
[2] = octanol/buffer partition coefficient; type: physicochemical; conditions: for logD: octanol/buffer
Excerpt: The compounds were additionally studied to determine their partition coefficients as between octanol and water, in standard tests at various pH values. A partition coefficient greater than unity at pH 7-9 is generally considered to be a good indication that the compound will be absorbed through the upper gastrointestinal tract when dosed orally.

solubility in water = type: physicochemical; conditions: dimer believed to be the meso 2R,2'S isomer, characterised by the applicant
cells = conditions: in words; cited from earlier work
[3] = literature (Barefield et al); cited from earlier work
[4] = HIV-2 (ROD), MT-4 cells, 5 days at 37° C., read-out: IC50
[5] = CC50, HIV-1 (IIIB) part of Table 1, 5 days at 37° C.
[6] = CC50, HIV-2 (ROD) part of Table 1, 5 days at 37° C.
[7] = Human immunodeficiency virus 1, MT4, 120 h, HIV-1 (IIIB), MT-4 cells, 5 days at 37° C., read-out: IC50
[8] = Human immunodeficiency virus 1, IIIB, MT4, 120 h

SMILES | SI (Selectivity Index, ratio of CC50 to IC50) (HIV-2 (LAV-2 ROD); HIV-2 (ROD), MT-4 cells) | CC50 at 120 h [1, 5] | CC50 at 120 h [1, 6] | SI (Selectivity Index, ratio of CC50 to IC50) (HIV-1 (HTLV-IIIB); HIV-1 (IIIB), MT-4 cells) | logD ([2]; pH 8) | logD ([2]; pH 9) | IC50 (HIV-2 (LAV-2 ROD)) | IC50 (HIV-1 (HTLV-IIIB); [8]) | also measured
c1cc2nc(c1)CCNCCCN(Cc1ccc(CN3CCCNCCc4cccc(n4)CCNCCC3)cc1)CCCNCC2 [Compound F, 8,8'-[1,4-Phenylenebis(methylene)]bis-4,8,12,19-tetraazabicyclo[15.3.1]nonadeca-1(19),15,17-triene octahydrobromide heptahydrate] | 102 | 199 µg/mL | 171 µg/mL | 336 | – | – | – | – | IC50 (HIV-2 (LAV-2 ROD); [4]): 1.68 µg/mL; IC50 (HIV-1 (HTLV-IIIB); [7]): 0.59 µg/mL
c1cc(CN2CCNCc3cccc(n3)CNCC2)cc(CN2CCNCc3cccc(n3)CNCC2)c1 [Compound H, 6,6'-[1,3-Phenylenebis(methylene)]bis-3,6,9,15-tetraazabicyclo[11.3.1]pentadeca-1(15),11,13-triene hexahydrobromide trihydrate] | 1.12 × 10^4 | 32.1 µg/mL | 30.7 µg/mL | 309 | – | – | – | – | IC50 (HIV-2 (LAV-2 ROD); [4]): 0.0027 µg/mL; IC50 (HIV-1 (HTLV-IIIB); [7]): 0.104 µg/mL
c1cc2nc(c1)CNCCN(Cc1ccc(CN3CCNCc4cccc(n4)CNCC3)cc1)CCNC2 [Compound G, 6,6'-[1,4'-Phenylenebis(methylene)]bis-3,6,9,15-tetraazabicyclo[11.3.1]pentadeca-1(15),11,13-triene hexahydromide trihydrate] | 31 | 6 µg/mL | 4.71 µg/mL | – | – | – | – | – | IC50 (HIV-2 (LAV-2 ROD); [4]): 0.15 µg/mL; IC50 (HIV-1 (HTLV-IIIB); [7]): 0.62 µg/mL
COc1cc2nc(c1)CNCCCN(Cc1ccc(CN3CCCNCc4cc(OC)cc(n4)CNCCC3)cc1)CCCNC2 [Compound C, 7,7'-[1,4-Phenylenebis(methylene)]bis[15-methoxy-3,7,11,17-tetraazabicyclo-[13.3.1]heptadeca-1(17),13,15-triene] hexahydrobromide dihydrate] | – | 229 µg/mL | > 250 µg/mL | 64 | -0.959 | -0.0605 | 9.74 µg/mL | 3.57 µg/mL | –
c1cc2nc(c1)CNCCCN(Cc1ccc(CN3CCCNCc4cccc(n4)CNCCC3)cc1)CCCNC2 [Compound A, 7,7'-[1,4-Phenylenebis(methylene)]bis-3,7,11,17-tetraazabicyclo[13.3.1heptadeca-1(17),13,15-trienehexahydrobromide hexahydrate] | – | > 250 µg/mL | > 250 µg/mL | – | -0.963 | 0.713 | 3.51 µg/mL | 0.719 µg/mL | –
C1CNCCNCCCN[C@H]([C@H]2CNCCCNCCNCCCN2)CNC1 [meso 2R,2'S isomer] | – | – | – | – | – | – | – | – | solubility in water (solubility in water): soluble
O=c1cc2[nH]c(c1)CNCCCN(Cc1ccc(CN3CCCNCc4cc(=O)cc([nH]4)CNCCC3)cc1)CCCNC2 [Compound D, 7,7'-[1,4-Phenylenebis(methylene)]bis-3,7,11,17-tetraazabicyclo-[13.3.1]-heptadeca-13,16-triene-15-one octahydrobromide] | < 1 | > 218 µg/mL | > 250 µg/mL | < 1 | -1.6 | -0.638 | > 250 µg/mL | > 218 µg/mL | –
c1cc2nc(c1)CNCCN(Cc1ccc(CN3CCNCc4cccc(n4)CNCCNCc4cccc(n4)C3)cc1)Cc1cccc(n1)CNCCNC2 [Compound K, 17,17'-[1,4-Phenylene-bis(methylene)]bis-3,6,14,17,23,24-hexaazatricyclo[17.3.1.1^8,12] tetracosa-1(23),8,10,12(24),19,21-hexnene octahydrobromide] | < 1 | 4.59 µg/mL | 5.89 µg/mL | < 1 | -1.15 | 0.25 | 5.89 µg/mL | 4.59 µg/mL | –
Cc1cn([C@H]2C[C@H](N=[N+]=[N-])[C@@H](CO)O2)c(=O)[nH]c1=O [AZT] | – | – | – | – | – | – | – | – | toxicity to cells (cells): high toxicity to cells
c1cc(CN2CCCNCCOCCNCCC2)ccc1CN1CCCNCCOCCNCCC1 [Compound J, 8,8'-[1,4-Phenylenebis(methylene)]bis-1-oxa-4,8,12-triazatetradecane-hexahydro bromide trihydrate] | > 116 | > 250 µg/mL | > 250 µg/mL | > 54 | -1.92 | -0.131 | 2.15 µg/mL | 4.62 µg/mL | logD ([2]; pH 7): -2.52
c1cc2nc(c1)CCNCCN(Cc1ccc(CN3CCNCCc4cccc(n4)CCNCC3)cc1)CCNCC2 [Compound E, 7,7'-[1,4-Phenylenebis(methylene)]bis-4,7,10,17-tetraazabicyclo-[13.3.1]heptadeca-1(17),13,15-triene octahydrobromide tetrahydrate] | – | > 250 µg/mL | > 250 µg/mL | – | -1.44 | 0.479 | 0.001 µg/mL | 0.0014 µg/mL | logD ([2]; pH 7): -2.4
C1CNCCNCCCNC(C2CNCCCNCCNCCCN2)CNC1 (stereo not drawn) [2,2'-dimer of cyclam] | – | – | – | – | – | – | – | – | solubility in water [3]: insoluble in water
Clc1cc2nc(c1)CNCCCN(Cc1ccc(CN3CCCNCc4cc(Cl)cc(n4)CNCCC3)cc1)CCCNC2 [Compound B, 7,7'-[1,4-Phenylenebis(methylene)]bis[15-chloro-3,7,11,17-tetraazabicyclo[13.3.1]heptadeca-1(17),13,15-triene]hexahydrobromide monoacetate] | – | 12.5 µg/mL | – | 14 | 0.588 | 1.46 | – | 0.89 µg/mL | logD ([2]; pH 7): -1
c1cc(CN2CCCNCCNCCCNCC2)ccc1CN1CCCNCCNCCCNCC1 [Compound L, 1,1'-[1,4-phenylenebis(methylene)]bis-1,4,8,11-tetraazacyclotetra-decane octahydrobromide dihydrate, reference compound] | – | > 250 µg/mL | > 250 µg/mL | – | – | – | – | – | octanol/buffer partition coefficient ([2]; pH 7): 0.0016; octanol/buffer partition coefficient ([2]; pH 8): 0.005; octanol/buffer partition coefficient ([2]; pH 9): 0.16; IC50 (HIV-2 (LAV-2 ROD); [4]): 0.009 µg/mL; IC50 (HIV-1 (HTLV-IIIB); Human immunodeficiency virus 1, IIIB, MT4, 120 h, read-out: IC50): 0.0068 µg/mL
